Data: ChEMBL document CHEMBL1201862, “PubChem BioAssay data set” (2004)
Active and inactive are the calls of the source.

How the values were obtained:
[1] = cytotoxicity toward DRD oncogenic fibroblasts, dose response, cell-based, non-viral oncogenic, luminescence (AID 1934); format: functional; settings: Homo sapiens
[2] = tested on: Streptococcus; experiment: Group A Streptococcus viability loss, dose response, counter-screen for streptokinase expression inhibitor project, luminescence, BacTiterGlo (AID 1915); format: functional, organism-based;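 also: potency for reduction of bacterial viability or growth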
[3] = target: SUMO E1/E2 (Homo sapiens, UniProt P63279+Q9UBE0+Q9UBT2); experiment: SAR analysis of SUMOylation using HTRF in an in-Vitro dose response assay. [Related pubchem assays (depositor defined):AID2006, AID2011, AID2018, AID2069, AID2658]; format: functional
[4] = target: T1, Caspase-3 (Homo sapiens, UniProt P42574); format: functional;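 also: Dose-response selectivity test against caspase-3 for candidate inhibitors of sentrin-specific proteases (SENPs)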
T1 sequence (P42574 whole entry): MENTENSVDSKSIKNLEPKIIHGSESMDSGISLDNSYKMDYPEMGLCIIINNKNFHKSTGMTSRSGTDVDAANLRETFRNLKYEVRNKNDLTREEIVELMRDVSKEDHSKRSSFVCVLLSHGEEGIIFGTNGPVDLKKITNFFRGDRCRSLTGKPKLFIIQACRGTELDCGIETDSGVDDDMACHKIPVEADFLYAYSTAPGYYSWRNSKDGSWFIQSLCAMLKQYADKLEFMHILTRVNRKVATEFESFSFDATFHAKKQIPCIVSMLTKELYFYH

[5] = target: T2, Caspase-6 (Homo sapiens, UniProt P55212); experiment: human caspase-6 inhibitors, dose response, biochemical, VEID-R110 fluorescence, cherry-pick (AID 720632)
T2 sequence (P55212 whole entry): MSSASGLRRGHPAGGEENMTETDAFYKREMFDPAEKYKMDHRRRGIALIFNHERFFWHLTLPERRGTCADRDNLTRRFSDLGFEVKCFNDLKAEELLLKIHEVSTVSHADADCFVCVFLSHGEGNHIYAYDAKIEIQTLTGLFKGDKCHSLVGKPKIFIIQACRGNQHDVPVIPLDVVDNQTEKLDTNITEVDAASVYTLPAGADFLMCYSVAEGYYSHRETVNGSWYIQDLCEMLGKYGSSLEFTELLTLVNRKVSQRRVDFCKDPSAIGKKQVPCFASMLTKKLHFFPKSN

[6] = target: Protein-arginine deiminase type-4 (Homo sapiens, UniProt Q9UM07); experiment: human PAD4 inhibitor potency, dose response, biochemical, fluorescence readout (AID 492970)
[7] = target: 1-phosphatidylinositol 4,5-bisphosphate phosphodiesterase beta-3 (Homo sapiens, UniProt Q01970); experiment: Fluorescence-based biochemical high throughput dose response assay to identify inhibitors of phospholipase C isozymes (PLC-B3).
[8] = target: T3, Cysteine protease ATG4B (Homo sapiens, UniProt Q9Y4P1); format: functional;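 also: Fluorescence-based dose-response confirmation assay measuring inhibition of ATG4B activity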
T3 sequence (Q9Y4P1 whole entry): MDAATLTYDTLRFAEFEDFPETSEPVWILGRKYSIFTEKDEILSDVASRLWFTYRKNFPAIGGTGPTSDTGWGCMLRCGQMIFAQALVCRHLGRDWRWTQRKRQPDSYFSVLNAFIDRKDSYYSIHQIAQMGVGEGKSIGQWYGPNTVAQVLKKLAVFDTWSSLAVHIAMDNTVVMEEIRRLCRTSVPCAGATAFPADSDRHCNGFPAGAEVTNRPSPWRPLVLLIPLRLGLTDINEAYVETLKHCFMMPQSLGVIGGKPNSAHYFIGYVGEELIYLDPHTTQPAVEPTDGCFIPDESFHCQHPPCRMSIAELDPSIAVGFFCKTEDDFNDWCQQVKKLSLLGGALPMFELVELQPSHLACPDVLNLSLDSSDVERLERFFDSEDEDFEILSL

[9] = ZM109 Env clade C HIV-1 fusion inhibitors, dose response, HeLa effector, CEM target cells, luciferase, cherry-pick (AID 652058); format: functional, cell-based
[10] = target: 1-phosphatidylinositol 4,5-bisphosphate phosphodiesterase gamma-1 (Homo sapiens, UniProt P19174); experiment: Counterscreen for inhibitors of phospholipase C isozymes (PLC-B3): Fluorescence-based biochemical high throughput dose response assay to identify inhibitors of phospholipase C isozymes (PLC-gamma1).
[11] = target: Photoreceptor-specific nuclear receptor (Homo sapiens, UniProt Q9Y5X4); format: functional;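 also: potency for compounds that break the NR2E3 corepressor complex and count as activators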
[12] = target: T4, Zinc finger protein mex-5 (Caenorhabditis elegans, UniProt Q9XUB2); experiment: MEX-5/TCR-2 RNA interaction inhibitors, dose response, biochemical, C. elegans, fluorescence polarization (AID 1960)
T4 sequence (Q9XUB2 whole entry): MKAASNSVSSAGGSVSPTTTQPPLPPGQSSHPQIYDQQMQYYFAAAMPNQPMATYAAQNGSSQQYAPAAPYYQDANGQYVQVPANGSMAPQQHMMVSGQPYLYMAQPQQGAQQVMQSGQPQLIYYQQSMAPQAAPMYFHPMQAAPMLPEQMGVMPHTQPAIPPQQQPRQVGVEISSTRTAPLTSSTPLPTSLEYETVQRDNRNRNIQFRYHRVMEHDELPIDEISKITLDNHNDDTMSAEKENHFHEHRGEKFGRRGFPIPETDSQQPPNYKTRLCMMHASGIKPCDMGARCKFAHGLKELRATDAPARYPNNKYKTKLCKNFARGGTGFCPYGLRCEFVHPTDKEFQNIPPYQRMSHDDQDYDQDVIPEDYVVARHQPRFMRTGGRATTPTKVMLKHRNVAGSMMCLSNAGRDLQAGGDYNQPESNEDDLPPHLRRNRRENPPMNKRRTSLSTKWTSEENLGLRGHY

[13] = inhibitors of SNCA 5'UTR-driven reporter translation, confirmation, H4 neuroglioma cells, luminescence (AID 1988); format: functional, cell-based
[14] = target: Delta-type opioid receptor (Homo sapiens, UniProt P41143); experiment: HTS Image-Based Screen for Antagonists of the DOR Receptor. [Related pubchem assays (depositor defined):AID1777, AID1785, AID1786, AID2133]; format: functional;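 also: U2OS cells expressing DOR stimulated with 100 nM SNC80 agonist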
[15] = Shn3 3'UTR reporter inhibitors, dose response, cell-based, Clone20 osteoblasts, firefly luciferase, cherry-picked (AID 624132); format: functional;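 also: firefly luciferase luminescence from reporter carrying the Shn3 3'UTR in osteoblasts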
[16] = control 3'UTR Renilla luciferase suppression, dose response, counter-screen for Shn3 inhibitor project, cell-based, Clone20-Shn3RL, cherry-picked (AID 624133); format: functional
[17] = target: Mu-type opioid receptor (Homo sapiens, UniProt P35372); experiment: HTS Image-Based Screen for Agonists of the MOR Receptor. [Related pubchem assays (depositor defined):AID1777, AID1785, AID1786, AID2133]; format: functional;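 also: imaging of beta-arrestin GFP recruitment into spots after receptor activation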
[18] = insulin promoter down-regulators in MIN6 cells, imaging, high-content screening, mouse beta cells (AID 1628); format: functional
[19] = enhancers of respiration in Yfh1-depleted yeast, dose response, Friedreich's ataxia, plus single-dose screen (AID 1465); format: functional;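 also: yeast depleted of Yfh1p frataxin homolog grown on glycerol needing respiration; WST-1 tetrazolium dye reduction as measure of cellular dehydrogenase metabolic activity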

Chain of 1-phosphatidylinositol 4,5-bisphosphate phosphodiesterase gamma-1 (P19174 whole entry): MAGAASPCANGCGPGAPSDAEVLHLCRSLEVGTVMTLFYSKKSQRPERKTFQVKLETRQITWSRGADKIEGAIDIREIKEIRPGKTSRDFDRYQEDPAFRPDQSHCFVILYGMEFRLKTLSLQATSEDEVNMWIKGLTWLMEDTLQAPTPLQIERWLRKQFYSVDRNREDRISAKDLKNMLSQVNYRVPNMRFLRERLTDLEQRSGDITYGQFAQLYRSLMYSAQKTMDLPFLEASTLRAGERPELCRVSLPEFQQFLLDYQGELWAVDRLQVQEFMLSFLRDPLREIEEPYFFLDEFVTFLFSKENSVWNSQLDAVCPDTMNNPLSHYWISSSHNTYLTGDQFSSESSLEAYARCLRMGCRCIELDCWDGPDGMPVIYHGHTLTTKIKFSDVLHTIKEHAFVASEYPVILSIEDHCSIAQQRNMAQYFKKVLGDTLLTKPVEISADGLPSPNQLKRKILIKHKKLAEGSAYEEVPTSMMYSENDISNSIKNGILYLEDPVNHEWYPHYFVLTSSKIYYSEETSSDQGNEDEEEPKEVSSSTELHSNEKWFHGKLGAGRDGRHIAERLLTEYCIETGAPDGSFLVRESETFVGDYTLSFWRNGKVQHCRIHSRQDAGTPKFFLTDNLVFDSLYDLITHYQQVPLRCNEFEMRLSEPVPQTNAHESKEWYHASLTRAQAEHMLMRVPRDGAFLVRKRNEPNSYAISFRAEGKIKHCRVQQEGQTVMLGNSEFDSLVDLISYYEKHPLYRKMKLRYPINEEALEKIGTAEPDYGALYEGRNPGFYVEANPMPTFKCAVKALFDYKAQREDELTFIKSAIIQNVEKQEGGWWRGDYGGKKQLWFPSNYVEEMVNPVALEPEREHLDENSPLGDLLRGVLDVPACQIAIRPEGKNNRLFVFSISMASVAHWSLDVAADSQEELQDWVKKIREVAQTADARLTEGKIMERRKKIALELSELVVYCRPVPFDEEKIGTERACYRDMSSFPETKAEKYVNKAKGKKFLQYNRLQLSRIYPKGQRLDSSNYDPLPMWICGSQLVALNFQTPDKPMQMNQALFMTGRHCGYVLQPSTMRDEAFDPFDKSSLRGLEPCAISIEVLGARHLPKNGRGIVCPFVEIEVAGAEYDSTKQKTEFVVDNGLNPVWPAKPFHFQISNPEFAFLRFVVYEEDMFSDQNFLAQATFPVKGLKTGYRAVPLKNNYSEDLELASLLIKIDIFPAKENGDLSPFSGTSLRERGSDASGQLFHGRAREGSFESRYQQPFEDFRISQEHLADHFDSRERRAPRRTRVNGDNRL
Chain of Delta-type opioid receptor (P41143 whole entry): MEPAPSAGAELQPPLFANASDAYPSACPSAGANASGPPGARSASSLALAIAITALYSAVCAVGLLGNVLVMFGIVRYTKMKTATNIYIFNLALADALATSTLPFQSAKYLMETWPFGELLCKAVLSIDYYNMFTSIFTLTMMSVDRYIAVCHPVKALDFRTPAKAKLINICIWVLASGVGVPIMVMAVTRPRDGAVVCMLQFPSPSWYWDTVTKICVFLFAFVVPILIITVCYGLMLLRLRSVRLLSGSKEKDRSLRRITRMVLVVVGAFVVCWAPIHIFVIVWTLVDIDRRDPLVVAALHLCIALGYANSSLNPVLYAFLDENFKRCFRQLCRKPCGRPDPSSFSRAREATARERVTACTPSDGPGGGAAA
Chain of Mu-type opioid receptor (P35372 whole entry): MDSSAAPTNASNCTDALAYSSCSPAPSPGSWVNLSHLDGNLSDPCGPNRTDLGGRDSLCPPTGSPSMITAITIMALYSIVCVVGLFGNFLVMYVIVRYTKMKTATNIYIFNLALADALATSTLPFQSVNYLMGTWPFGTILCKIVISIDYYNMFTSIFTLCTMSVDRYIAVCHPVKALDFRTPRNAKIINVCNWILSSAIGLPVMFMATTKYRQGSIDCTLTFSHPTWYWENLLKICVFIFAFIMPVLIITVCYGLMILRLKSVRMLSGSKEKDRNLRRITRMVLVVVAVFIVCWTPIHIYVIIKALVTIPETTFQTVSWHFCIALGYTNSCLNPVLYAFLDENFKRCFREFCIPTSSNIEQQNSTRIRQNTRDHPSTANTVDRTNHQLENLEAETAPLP
Chain of Protein-arginine deiminase type-4 (Q9UM07 whole entry): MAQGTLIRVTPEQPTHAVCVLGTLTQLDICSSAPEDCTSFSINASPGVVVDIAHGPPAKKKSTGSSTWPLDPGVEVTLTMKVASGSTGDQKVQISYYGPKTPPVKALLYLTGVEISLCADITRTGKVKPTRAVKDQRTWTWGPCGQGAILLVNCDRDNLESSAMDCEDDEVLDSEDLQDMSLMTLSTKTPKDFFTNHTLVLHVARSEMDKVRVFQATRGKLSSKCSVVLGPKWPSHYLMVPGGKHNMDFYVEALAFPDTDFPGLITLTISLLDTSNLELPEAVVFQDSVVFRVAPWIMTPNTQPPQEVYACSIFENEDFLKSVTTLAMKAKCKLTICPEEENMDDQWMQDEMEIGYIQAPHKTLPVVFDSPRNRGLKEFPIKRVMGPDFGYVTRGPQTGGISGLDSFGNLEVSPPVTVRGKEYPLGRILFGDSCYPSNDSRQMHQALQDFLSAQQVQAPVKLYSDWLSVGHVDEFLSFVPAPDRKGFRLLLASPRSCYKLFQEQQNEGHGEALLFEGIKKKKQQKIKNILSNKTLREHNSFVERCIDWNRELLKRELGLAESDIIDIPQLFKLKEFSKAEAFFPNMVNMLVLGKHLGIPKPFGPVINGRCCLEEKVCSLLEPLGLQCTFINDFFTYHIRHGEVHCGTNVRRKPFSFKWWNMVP
Chain of Photoreceptor-specific nuclear receptor (Q9Y5X4 whole entry): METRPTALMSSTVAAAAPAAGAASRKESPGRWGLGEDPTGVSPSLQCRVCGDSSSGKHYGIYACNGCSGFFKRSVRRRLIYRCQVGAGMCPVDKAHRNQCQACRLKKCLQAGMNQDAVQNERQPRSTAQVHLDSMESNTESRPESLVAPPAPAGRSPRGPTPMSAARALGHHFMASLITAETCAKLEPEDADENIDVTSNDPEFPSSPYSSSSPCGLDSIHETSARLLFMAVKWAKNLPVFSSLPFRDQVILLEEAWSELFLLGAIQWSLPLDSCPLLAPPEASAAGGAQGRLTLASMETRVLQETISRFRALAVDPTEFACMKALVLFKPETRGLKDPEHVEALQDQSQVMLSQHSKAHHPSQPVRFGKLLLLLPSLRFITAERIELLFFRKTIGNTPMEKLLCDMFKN
Chain of 1-phosphatidylinositol 4,5-bisphosphate phosphodiesterase beta-3 (Q01970 whole entry): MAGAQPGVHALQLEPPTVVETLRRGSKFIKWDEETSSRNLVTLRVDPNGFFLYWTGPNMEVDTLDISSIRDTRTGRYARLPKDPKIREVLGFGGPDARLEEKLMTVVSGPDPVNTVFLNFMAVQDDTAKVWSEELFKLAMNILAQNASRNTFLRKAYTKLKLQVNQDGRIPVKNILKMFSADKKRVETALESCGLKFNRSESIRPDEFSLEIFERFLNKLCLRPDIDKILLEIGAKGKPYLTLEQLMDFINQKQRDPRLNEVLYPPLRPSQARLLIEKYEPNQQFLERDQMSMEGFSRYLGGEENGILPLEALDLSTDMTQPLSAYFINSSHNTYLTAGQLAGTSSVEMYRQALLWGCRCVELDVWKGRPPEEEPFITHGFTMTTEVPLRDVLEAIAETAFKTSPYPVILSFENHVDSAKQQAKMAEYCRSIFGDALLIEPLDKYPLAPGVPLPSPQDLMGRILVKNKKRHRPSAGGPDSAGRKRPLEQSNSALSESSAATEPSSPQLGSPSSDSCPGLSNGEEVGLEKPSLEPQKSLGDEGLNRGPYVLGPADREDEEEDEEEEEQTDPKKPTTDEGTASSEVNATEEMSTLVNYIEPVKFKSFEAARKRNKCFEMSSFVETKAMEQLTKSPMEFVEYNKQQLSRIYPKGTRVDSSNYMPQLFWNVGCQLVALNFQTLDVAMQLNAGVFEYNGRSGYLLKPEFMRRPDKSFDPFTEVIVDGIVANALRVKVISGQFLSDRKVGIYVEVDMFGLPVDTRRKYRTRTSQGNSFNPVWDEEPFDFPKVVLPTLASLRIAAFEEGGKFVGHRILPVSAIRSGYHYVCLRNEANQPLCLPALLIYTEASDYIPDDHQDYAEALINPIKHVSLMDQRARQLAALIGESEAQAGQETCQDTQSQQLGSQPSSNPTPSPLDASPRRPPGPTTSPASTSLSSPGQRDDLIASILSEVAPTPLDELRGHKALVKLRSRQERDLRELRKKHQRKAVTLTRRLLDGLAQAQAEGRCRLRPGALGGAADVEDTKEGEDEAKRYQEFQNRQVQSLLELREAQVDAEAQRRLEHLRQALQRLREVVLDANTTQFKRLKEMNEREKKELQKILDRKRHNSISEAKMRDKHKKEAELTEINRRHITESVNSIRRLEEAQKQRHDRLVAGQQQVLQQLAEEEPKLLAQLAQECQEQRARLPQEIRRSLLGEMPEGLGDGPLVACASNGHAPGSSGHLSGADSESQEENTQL

Compound: COCCCNC(=O)c1ccc2c3c(onc13)-c1ccccc1C2=O
- EC50 [1]: 8.59 µM (active)

Compound: CCOC(=O)C1=C(c2ccc(OC)cc2)C(=O)c2ccccc2C1=O
- EC50 [2]: 6.2 µM (active)

Compound: CCCCn1c(NC(=O)c2ccccc2Cl)c(C#N)c2nc3ccccc3nc21
- IC50 [3]: 10.9 µM (active)
- IC50 [4]: 12.2 µM (active)
- AC50 [5]: 14.1 µM (active)

Compound: O=C1C(=O)c2ccccc2-c2ccccc21 [9,10-PHENANTHRENEQUINONE]
- EC50 [1]: 4.95 µM (inconclusive)
- EC50 [2]: 2.3 µM (active)
- IC50 [6]: 16 µM (inactive)
- IC50 [7]: > 122 µM (inactive)
- IC50 [8]: 1.25 µM (active)
- AC50 [9]: 3.1 µM (active)
- IC50 [10]: 6.37 µM (active)
- IC50 [11]: > 39.8 µM (not active)

Compound: O=C1c2cc(F)ccc2-n2c1nc1ccccc1c2=O
- EC50 [12]: > 300 µM (not active)
- EC50 [13]: 8.84 µM (active)

Compound: CCc1ccc(OCC(=O)N/N=C2\CC(=O)c3ccccc32)cc1
- IC50 [4]: 3.7 µM (active)

Compound: CCC(=O)OCCNc1cc(Sc2nccn2C)c2nonc2c1[N+](=O)[O-]
- IC50 [14]: 29.7 µM (inactive)
- AC50 [15]: 1.55 µM (active)
- AC50 [16]: 4.16 µM (active)
- EC50 [17]: > 32 µM (inactive)

Compound: O=C1C=C(N(CCO)Cc2ccccc2)c2ccccc2C1=O
- IC50 [18]: 5.11 µM (active)
- EC50 [19]: > 100 µM (active)
